Results reported in patent US9029559B2, “Substituted 3-heteroaroylamino-propionic acid derivatives and their use as pharmaceuticals” (SANOFI, priority 2011, dated 2015).
pIC50: −log10 of the molar value. Where two headings read alike, the source gives them in different places.

Target: Recombinant human cathepsin A (Homo sapiens (Human), UniProt P10619)
Assay: Cathepsin A inhibitory activity (cleavage of Bodipy FL-labeled bradykinin, microfluidic capillary electrophoresis)
Assay type: biochemical
Settings: for IC50: read-out: Activity [μM] (IC50, cathepsin A inhibitory activity)
[1] = read-out: Activity (IC50, cathepsin A inhibitory activity)
[2] = read-out: Activity (IC50, cathepsin A inhibition)
[3] = read-out: Activity (Cathepsin A inhibitory activity, IC50)

Chain of Recombinant human cathepsin A (P10619 29-326): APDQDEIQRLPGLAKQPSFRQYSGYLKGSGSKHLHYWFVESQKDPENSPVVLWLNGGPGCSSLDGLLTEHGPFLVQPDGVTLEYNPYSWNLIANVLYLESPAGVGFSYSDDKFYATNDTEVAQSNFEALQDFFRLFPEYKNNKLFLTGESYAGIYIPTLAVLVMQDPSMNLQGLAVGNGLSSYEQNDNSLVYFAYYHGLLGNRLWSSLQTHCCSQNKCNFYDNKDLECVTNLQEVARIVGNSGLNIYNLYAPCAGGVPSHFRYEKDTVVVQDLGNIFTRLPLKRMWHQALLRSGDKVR
Chain of Recombinant human cathepsin A (P10619 327-480): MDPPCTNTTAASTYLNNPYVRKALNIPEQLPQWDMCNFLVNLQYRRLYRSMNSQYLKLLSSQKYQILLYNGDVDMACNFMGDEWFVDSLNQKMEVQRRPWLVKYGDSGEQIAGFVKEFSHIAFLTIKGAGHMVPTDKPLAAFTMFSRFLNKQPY
Protocol: Pharmacological Tests a) Cathepsin A Inhibitory Activity
Briefly, cathepsin A was incubated at 10 μg/ml with cathepsin L at 1 μg/ml in activation buffer (25 mM 2-(morpholin-4-yl)-ethanesulfonic acid (MES), pH 6.0, containing 5 mM dithiothreitol (DTT)) for 15 min at 37° C.
The activated cathepsin A was diluted in assay buffer (25 mM MES, pH 5.5, containing 5 mM DTT) and mixed with the test compound (dissolved in assay buffer containing (v/v) 3% DMSO) or, in the control experiments, with the vehicle in a multiple assay plate. After incubation for 15 min at room temperature, as substrate then bradykinin carrying an N-terminal ®Bodipy FL (4,4-difluoro-5,7-dimethyl-4-bora-3a,4a-diaza-s-indacene-3-propionyl) label (JPT Peptide Technologies GmbH; dissolved in assay buffer) was added to the mixture. […] After incubation for 15 min at room temperature the reaction was stopped by the addition of stop buffer (130 mM 2-(4-(2-hydroxy-ethyl)-piperazin-1-yl)-ethanesulfonic acid, pH 7.4, containing (v/v) 0.013% ®Triton X-100, 0.13% Coating Reagent 3 (Caliper Life Sciences), 6.5% DMSO and 20 μM ebelactone B (Sigma, #E0886)).
Uncleaved substrate and product were then separated by a microfluidic capillary electrophoresis on a LabChip® 3000 Drug Discovery System (12-Sipper-Chip; Caliper Life Sciences) and quantified by determination of the respective peak areas. Substrate turnover was calculated by dividing product peak area by the sum of substrate and product peak areas, and the enzyme activity and the inhibitory effect of the test compound thus quantified.

SMILES	IC50 [µM]	pIC50 [1]	also measured
COc1ccc(C(C)(C)C)cc1-c1nc(C(=O)N[C@@H](CC(=O)O)c2ccccc2F)ccc1OC [compound 308]	> 10	–	–
Cc1ccccc1[C@H](CC(=O)O)NC(=O)c1cncc(-c2cccc(F)c2F)c1 [compound 79]	–	5.30	–
COc1ccc(C(=O)N[C@@H](CC(=O)O)c2ccccc2F)nc1-c1ccc(Cl)cc1 [compound 258]	–	5.28	–
COc1ccc(C(=O)N[C@@H](CC(=O)O)c2ccccc2C)nc1-c1cccc(-c2nnc(C)o2)c1 [compound 471, (S)-3-({5-Methoxy-6-[3-(5-methyl-[1,3,4]oxadiazol-2-yl)-phenyl]-pyridine-2-carbonyl}-amino)-3-o-tolyl-propionic acid]	–	5.37	–
Cc1ccccc1[C@H](CC(=O)O)NC(=O)c1cccc(-c2ccc3c(c2)OCO3)n1 [compound 152]	1.55	–	–
COc1ccc(C(=O)N[C@@H](CC(=O)O)c2ccc(C)cc2)nc1-c1ccc(F)c(F)c1 [compound 208]	7.42	–	–
COc1ccc(C(=O)N[C@@H](CC(=O)O)c2ccccc2C)nc1-c1ccc(C)o1 [compound 376]	6.1	–	–
Cc1ccccc1[C@H](CC(=O)O)NC(=O)c1cccc(-c2cc(F)cc(F)c2)n1 [compound 150]	1.02	–	–
O=C(O)CC(NC(=O)c1cccc(Br)n1)c1ccccc1Cl (centres unmarked) [compound 562]	–	–	pIC50 [2]: 5.68
O=C(O)CC(NC(=O)c1cnccn1)c1ccccc1Cl (centres unmarked) [compound 521]	–	–	pIC50 [2]: 4.89
COc1ccc(C(=O)N[C@@H](CC(=O)O)c2ccc(C)cc2)nc1-c1cc(C)cnc1Cl [compound 247]	–	5.07	–
COc1ccc(C(=O)N[C@@H](CC(=O)O)c2ccccc2C)nc1-c1cccc(F)c1Cl [compound 383]	1.64	–	–
Cc1ccccc1[C@H](CC(=O)O)NC(=O)c1cccc(-c2ccc(Cl)cc2)n1 [compound 136]	4.85	–	–
COc1ccc(Cl)cc1-c1nc(C(=O)N[C@@H](CC(=O)O)c2ccccc2Cl)ccc1OC [compound 459]	–	5.94	–
COc1ccc(C(=O)N[C@@H](CC(=O)O)c2ccccc2F)nc1-c1cccc(C)c1 [compound 269]	–	5.99	–
O=C(O)C[C@H](NC(=O)c1cccc(-c2ccccc2Cl)n1)c1cccc(F)c1 [compound 587]	–	–	pIC50 [2]: 5.13
COc1ccc(C(=O)N[C@@H](CC(=O)O)c2ccccc2C)nc1-c1ccncc1 [compound 365]	5.45	–	–
COc1cccc(-c2cccc(C(=O)NC(CC(=O)O)c3ccccc3Cl)n2)c1 (centres unmarked) [compound 596]	–	–	pIC50 [2]: 5.24
Cc1ccccc1[C@H](CC(=O)O)NC(=O)c1ccccn1 [compound 5]	–	5.40	–
O=C(O)CC(NC(=O)c1ccncc1)c1ccccc1Cl (centres unmarked) [compound 524]	–	–	pIC50 [2]: 4.99
COc1ccc(C(=O)N[C@@H](CC(=O)O)c2ccc(C)cc2)nc1-c1ccc2ccn(C)c2c1 [compound 251]	–	5.05	–
COc1ncc(C(=O)N[C@@H](CC(=O)O)c2ccccc2Cl)cc1-c1ccc(Cl)cc1 [compound 386]	10.4	–	–
Cc1ccccc1[C@H](CC(=O)O)NC(=O)c1cccc(-c2cccc(OCC3CC3)c2)n1 [compound 171]	6.98	–	–
Cc1ccccc1[C@H](CC(=O)O)NC(=O)c1cccc(-c2ccc(F)c(Cl)c2)n1 [compound 134]	3.62	–	–
COc1ncc(C(=O)N[C@@H](CC(=O)O)c2ccccc2C)cc1-c1ccc(C#N)cc1 [compound 421]	–	4.98	–

SMILES	IC50 [µM]	pIC50 [1]	also measured
Cc1ccccc1[C@H](CC(=O)O)NC(=O)c1nc(Cl)ccc1Cl [compound 506]	–	–	pIC50 [2]: 5.07
COc1ccc(C(=O)N[C@@H](CC(=O)O)c2ccccc2Cl)nc1-c1ccc(C)cc1 [compound 336]	3.13	–	–
COc1ccc(C(=O)N[C@@H](CC(=O)O)c2ccccc2C)nc1-c1cccc(C(C)=O)c1 [compound 360]	2.42	–	–
Cc1ccccc1[C@H](CC(=O)O)NC(=O)c1cccnc1 [compound 8]	–	4.98	–
COc1ncc(C(=O)N[C@@H](CC(=O)O)c2ccccc2C)cc1-c1cccc(Cl)c1 [compound 413]	–	5.20	–
COc1ccc(C(=O)N[C@@H](CC(=O)O)c2ccccc2F)nc1-c1cccc(-c2nnc(C)o2)c1 [compound 316]	> 10	–	–
COc1cccc(C(=O)N[C@@H](CC(=O)O)c2ccccc2C)n1 [compound 31]	–	5.32	–
COc1ccc(C(=O)N[C@@H](CC(=O)O)c2ccccc2C)nc1-c1ccc2ccn(C)c2c1 [compound 380]	5.33	–	–
COc1ccc(C(=O)N[C@@H](CC(=O)O)c2ccccc2C)nc1-c1ccc(F)nc1 [compound 373]	1.6	–	–
O=C(O)C[C@H](NC(=O)c1cccc(-c2ccccc2F)n1)c1ccc(Cl)cc1Cl [compound 605]	–	–	pIC50 [3]: 5.64
Cc1cc(C)nc(C(=O)NC(CC(=O)O)c2ccccc2Cl)c1 (centres unmarked) [compound 533]	–	–	pIC50 [2]: 5.20
COc1ccc(C(=O)N[C@@H](CC(=O)O)c2ccccc2Cl)nc1-c1cc(C)cnc1Cl [compound 481]	–	5.06	–
Cc1cc(F)c(-c2cccc(C(=O)N[C@@H](CC(=O)O)c3ccccc3C)n2)cc1Cl [compound 175]	2.36	–	–
COc1ccc(C(=O)N[C@@H](CC(=O)O)c2ccccc2Cl)nc1-c1cccc(-c2ccccc2)c1 [compound 436]	–	5.53	–
Cc1ccccc1[C@H](CC(=O)O)NC(=O)c1cncc(Cl)n1 [compound 514]	–	–	pIC50 [2]: 5.92
COc1cccc(-c2nc(C(=O)N[C@@H](CC(=O)O)c3ccccc3Cl)ccc2OC)c1 [compound 339]	2.78	–	–
COc1ccc(C(=O)N[C@@H](CC(=O)O)c2ccccc2F)nc1-c1cccc(C(C)=O)c1 [compound 275]	–	5.07	–
COc1ccc(-c2cc(C(=O)N[C@@H](CC(=O)O)c3ccccc3Cl)cnc2OC)cc1 [compound 387]	9.43	–	–
COc1ncc(C(=O)N[C@@H](CC(=O)O)c2ccccc2Cl)cc1-c1cccc(Cl)c1 [compound 392, (S)-3-(2-Chloro-phenyl)-3-{[5-(3-choro-phenyl)-6-methoxy-pyridine-3-carbonyl]-amino}-propionic acid]	10.3	–	–
Cc1ccccc1[C@H](CC(=O)O)NC(=O)c1cccc(-c2ccc(C(F)(F)F)cc2)n1 [compound 138]	6.83	–	–
O=C(O)CC(NC(=O)c1cccc(-c2ccccc2)n1)c1ccccc1Cl (centres unmarked) [compound 563]	–	–	pIC50 [2]: 5.51
O=C(O)CC(NC(=O)c1cc(Sc2ncccn2)ccn1)c1ccccc1Cl (centres unmarked) [compound 601]	–	–	pIC50 [3]: 5.41
COc1ccc(OC)c(-c2nc(C(=O)N[C@@H](CC(=O)O)c3ccccc3Cl)ccc2OC)c1 [compound 461]	–	5.08	–
COc1ccc(C(=O)N[C@@H](CC(=O)O)c2ccccc2Cl)nc1-c1cccc(C(C)=O)c1 [compound 435]	–	5.38	–
COc1ccc(C(=O)N[C@@H](CC(=O)O)c2ccccc2C)nc1-c1ccc(C#N)cc1 [compound 465]	–	5.17	–

SMILES	IC50 [µM]	pIC50 [1]	also measured
C[C@@](CC(=O)O)(NC(=O)c1cccc(-c2ccccc2Cl)n1)c1ccccc1 [compound 581]	–	–	pIC50 [2]: 5.24
COc1ncc(C(=O)N[C@@H](CC(=O)O)c2ccccc2C)cc1-c1ccc(F)c(Cl)c1 [compound 406]	–	5.00	–
Cc1cccc(C(=O)N[C@@H](CC(=O)O)c2ccccc2C)n1 [compound 10]	–	5.91	–
O=C(O)C[C@H](NC(=O)c1cccc(-c2ccccc2F)n1)c1cccc(Cl)c1Cl [compound 606]	–	–	pIC50 [3]: 5.41
COc1cccc(-c2cc(C(=O)N[C@@H](CC(=O)O)c3ccccc3C)cnc2OC)c1 [compound 412]	–	5.08	–
COc1ccc(C(=O)N[C@@H](CC(=O)O)c2ccccc2Cl)nc1-c1ccc(C)cc1C [compound 450]	–	5.80	–
CCc1ccnc(C(=O)NC(CC(=O)O)c2ccccc2Cl)c1 (centres unmarked) [compound 532]	–	–	pIC50 [2]: 4.99
Cc1ccccc1[C@H](CC(=O)O)NC(=O)c1cccc(-c2cccc(C(C)(C)O)c2)n1 [compound 176, (S)-3-({6-[3-(1-Hydroxy-1-methyl-ethyl)-phenyl]-pyridine-2-carbonyl}-amino)-3-o-tolyl-propionic acid]	3.32	–	–
COc1ccc(C(=O)N[C@@H](CC(=O)O)c2ccccc2Cl)nc1-c1cccc(C2(O)COC2)c1 [compound 495]	–	–	pIC50 [2]: 5.41
Cc1ccccc1[C@H](CC(=O)O)NC(=O)c1cccc(-c2cccc(C(F)(F)F)c2)n1 [compound 133]	5.76	–	–
COc1ccc(C(=O)N[C@@H](CC(=O)O)c2ccccc2F)nc1-c1cccc(C(F)(F)F)c1 [compound 253]	–	5.39	–
COc1ncc(C(=O)N[C@@H](CC(=O)O)c2ccccc2Cl)cc1-c1cccc(C)c1 [compound 395]	6.57	–	–
O=C(O)CC(NC(=O)c1nc(Cl)ccc1Cl)c1ccc(-c2ccccc2)cc1 (centres unmarked) [compound 498]	–	–	pIC50 [2]: 5.07
COc1ccc(C(=O)NC(CC(=O)O)c2ccccc2Cl)nc1Br (centres unmarked) [compound 598, 3-[(6-Bromo-5-methoxy-pyridine-2-carbonyl)-amino]-3-(2-chloro-phenyl)-propionic acid]	–	–	pIC50 [3]: 5.84
COc1ccccc1-c1cccc(C(=O)NC(CC(=O)O)c2ccccc2Cl)n1 (centres unmarked) [compound 597]	–	–	pIC50 [2]: 5.84
COc1ccc(C(=O)N[C@@H](CC(=O)O)c2ccccc2F)nc1-c1ccc(C#N)cc1F [compound 325]	3.58	–	–
Cc1ccccc1[C@H](CC(=O)O)NC(=O)c1cccc(-c2ccc(C#N)cc2)n1 [compound 146]	2.16	–	–
COc1cc(C(=O)N[C@@H](CC(=O)O)c2ccccc2C)nc(OC)n1 [compound 16, (S)-3-[(2,6-Dimethoxy-pyrimidine-4-carbonyl)-amino]-3-o-tolyl-propionic acid]	–	5.98	–
COc1ncc(C(=O)N[C@@H](CC(=O)O)c2ccccc2C)cc1-c1cccc(C)c1 [compound 417]	–	5.31	–
O=C(O)CC(NC(=O)c1cccc(Cl)n1)c1ccccc1Cl (centres unmarked) [compound 540]	–	–	pIC50 [2]: 5.80
Cc1ccccc1[C@H](CC(=O)O)NC(=O)c1cncc(-c2ccc(F)cc2F)c1 [compound 73]	–	5.49	–
COc1ccc(C(=O)N[C@@H](CC(=O)O)c2ccc(C)cc2)nc1-c1ccc(F)c(C)c1 [compound 225]	–	5.49	–
COc1ccc(C(=O)N[C@@H](CC(=O)O)c2ccccc2F)nc1-c1cccc(C2(O)COC2)c1 [compound 326]	8.46	–	–
COc1ccc(C(=O)N[C@@H](CC(=O)O)c2ccccc2C)nc1-c1cccc(C#N)c1 [compound 359]	4.49	–	–
